Source: patent US9428503B2, “Imidazo[4,5-c]quinolin-2-one compounds and their use in treating Cancer” (AstraZeneca AB, priority 2014, dated 2016)

How the values were obtained:
Type in all cases: cell-based
[1] = target: mTOR (Homo sapiens (Human), UniProt P42345); experiment: Assay d) mTOR cellular potency assay (phospho-AKT Ser473 in MDA-MB-468 cells); conditions: MDA-MB-468 cells, phospho-AKT Ser473, 2 h; geometric mean where repeated; read-out: Assay d) mTOR Cell IC50
[2] = target: ATR kinase (Homo sapiens (Human), UniProt Q13535); experiment: Assay b) ATR cellular potency assay (pChk1 Ser345 in HT29 cells treated with 4NQO); conditions: HT29 cells, pChk1 Ser345 after 4NQO; geometric mean where repeated; read-out: Assay b) ATR Cell IC50
[3] = target: PI3K-α (Homo sapiens, UniProt P42336); experiment: Assay c) PI3K cellular potency assay (phospho-Akt T308 ELISA in BT474 cells); conditions: BT474 cells, phospho-Akt T308, 2 h; geometric mean where repeated; read-out: Assay c) PI3Kα Cell IC50
[4] = target: ATM kinase (Homo sapiens (Human), UniProt Q13315); experiment: Assay a) ATM cellular potency assay (pATM Ser1981 in X-ray irradiated HT29 cells); conditions: HT29 cells, pATM Ser1981 after X-ray irradiation; geometric mean where repeated; read-out: Assay a) ATM Cell IC50
Chain of ATM kinase (Q13315 whole entry): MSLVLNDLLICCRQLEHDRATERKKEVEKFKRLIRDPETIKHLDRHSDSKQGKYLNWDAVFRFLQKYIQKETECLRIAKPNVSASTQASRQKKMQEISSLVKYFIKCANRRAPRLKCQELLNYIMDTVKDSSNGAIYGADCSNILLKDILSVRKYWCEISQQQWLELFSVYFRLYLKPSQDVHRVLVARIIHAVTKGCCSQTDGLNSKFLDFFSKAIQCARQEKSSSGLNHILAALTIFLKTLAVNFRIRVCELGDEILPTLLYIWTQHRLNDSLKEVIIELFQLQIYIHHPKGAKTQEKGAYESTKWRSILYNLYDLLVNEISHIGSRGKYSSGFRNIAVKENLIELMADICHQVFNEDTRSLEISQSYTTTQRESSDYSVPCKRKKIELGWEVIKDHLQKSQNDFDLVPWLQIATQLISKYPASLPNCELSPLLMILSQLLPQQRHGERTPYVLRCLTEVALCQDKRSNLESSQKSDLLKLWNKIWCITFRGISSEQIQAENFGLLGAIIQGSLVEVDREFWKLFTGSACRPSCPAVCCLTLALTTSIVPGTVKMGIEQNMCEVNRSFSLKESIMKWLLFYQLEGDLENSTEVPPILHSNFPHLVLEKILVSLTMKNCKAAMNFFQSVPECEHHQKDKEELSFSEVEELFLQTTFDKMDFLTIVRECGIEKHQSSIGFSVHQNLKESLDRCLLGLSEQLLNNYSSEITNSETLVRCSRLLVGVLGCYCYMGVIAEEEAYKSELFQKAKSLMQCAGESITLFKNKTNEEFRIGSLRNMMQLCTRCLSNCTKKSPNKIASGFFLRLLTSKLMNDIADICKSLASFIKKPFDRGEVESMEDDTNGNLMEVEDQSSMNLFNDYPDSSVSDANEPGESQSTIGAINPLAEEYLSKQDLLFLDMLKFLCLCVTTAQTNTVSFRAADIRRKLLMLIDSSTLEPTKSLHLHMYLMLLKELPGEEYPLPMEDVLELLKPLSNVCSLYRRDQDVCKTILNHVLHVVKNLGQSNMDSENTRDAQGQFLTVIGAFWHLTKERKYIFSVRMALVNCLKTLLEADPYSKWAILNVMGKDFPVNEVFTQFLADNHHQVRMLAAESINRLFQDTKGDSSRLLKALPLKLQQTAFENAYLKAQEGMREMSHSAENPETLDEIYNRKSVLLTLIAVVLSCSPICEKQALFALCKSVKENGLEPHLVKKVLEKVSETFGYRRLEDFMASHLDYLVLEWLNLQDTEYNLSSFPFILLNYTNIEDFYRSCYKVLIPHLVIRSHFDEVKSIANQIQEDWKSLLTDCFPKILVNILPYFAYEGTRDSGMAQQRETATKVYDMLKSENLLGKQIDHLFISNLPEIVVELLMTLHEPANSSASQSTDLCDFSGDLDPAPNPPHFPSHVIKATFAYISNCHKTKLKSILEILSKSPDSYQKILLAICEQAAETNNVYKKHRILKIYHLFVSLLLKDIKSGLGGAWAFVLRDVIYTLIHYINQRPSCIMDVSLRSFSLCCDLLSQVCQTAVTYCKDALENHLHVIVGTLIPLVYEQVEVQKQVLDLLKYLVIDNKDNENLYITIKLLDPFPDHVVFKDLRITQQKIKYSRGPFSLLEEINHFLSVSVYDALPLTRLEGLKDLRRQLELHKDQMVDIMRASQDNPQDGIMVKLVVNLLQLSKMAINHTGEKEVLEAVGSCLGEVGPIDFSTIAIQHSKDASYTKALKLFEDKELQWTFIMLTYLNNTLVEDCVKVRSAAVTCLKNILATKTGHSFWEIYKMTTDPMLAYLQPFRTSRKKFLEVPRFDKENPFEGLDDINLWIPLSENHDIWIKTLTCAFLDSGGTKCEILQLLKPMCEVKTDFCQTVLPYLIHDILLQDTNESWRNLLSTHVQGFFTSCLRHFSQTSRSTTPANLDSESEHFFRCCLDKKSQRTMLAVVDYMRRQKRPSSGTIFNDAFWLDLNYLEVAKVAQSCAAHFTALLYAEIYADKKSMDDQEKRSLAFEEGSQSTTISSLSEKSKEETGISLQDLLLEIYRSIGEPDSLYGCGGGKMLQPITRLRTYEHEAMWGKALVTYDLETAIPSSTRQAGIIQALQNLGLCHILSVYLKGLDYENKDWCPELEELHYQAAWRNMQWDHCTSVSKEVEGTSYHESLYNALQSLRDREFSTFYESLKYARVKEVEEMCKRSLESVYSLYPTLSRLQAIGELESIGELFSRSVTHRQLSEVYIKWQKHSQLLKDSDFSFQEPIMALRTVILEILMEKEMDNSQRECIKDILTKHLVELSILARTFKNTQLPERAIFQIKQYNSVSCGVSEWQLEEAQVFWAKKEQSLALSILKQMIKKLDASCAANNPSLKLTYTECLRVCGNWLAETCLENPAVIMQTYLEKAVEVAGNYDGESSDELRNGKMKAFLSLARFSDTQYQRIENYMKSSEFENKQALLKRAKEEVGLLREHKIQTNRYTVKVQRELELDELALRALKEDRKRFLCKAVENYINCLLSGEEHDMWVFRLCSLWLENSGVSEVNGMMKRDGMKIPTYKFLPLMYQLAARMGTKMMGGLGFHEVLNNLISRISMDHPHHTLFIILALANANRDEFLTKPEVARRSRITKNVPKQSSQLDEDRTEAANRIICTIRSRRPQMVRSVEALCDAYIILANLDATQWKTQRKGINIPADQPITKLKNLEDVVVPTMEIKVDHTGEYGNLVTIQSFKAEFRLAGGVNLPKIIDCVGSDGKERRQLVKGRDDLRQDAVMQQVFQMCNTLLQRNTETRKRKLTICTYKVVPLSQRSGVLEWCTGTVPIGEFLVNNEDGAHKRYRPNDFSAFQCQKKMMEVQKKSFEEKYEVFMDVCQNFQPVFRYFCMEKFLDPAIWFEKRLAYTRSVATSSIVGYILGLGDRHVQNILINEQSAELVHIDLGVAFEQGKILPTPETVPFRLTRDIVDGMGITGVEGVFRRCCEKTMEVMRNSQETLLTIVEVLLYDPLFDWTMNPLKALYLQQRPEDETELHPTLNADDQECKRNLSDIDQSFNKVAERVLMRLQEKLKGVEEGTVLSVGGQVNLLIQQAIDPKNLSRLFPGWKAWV

Chain of PI3K-α (P42336 whole entry, looked up): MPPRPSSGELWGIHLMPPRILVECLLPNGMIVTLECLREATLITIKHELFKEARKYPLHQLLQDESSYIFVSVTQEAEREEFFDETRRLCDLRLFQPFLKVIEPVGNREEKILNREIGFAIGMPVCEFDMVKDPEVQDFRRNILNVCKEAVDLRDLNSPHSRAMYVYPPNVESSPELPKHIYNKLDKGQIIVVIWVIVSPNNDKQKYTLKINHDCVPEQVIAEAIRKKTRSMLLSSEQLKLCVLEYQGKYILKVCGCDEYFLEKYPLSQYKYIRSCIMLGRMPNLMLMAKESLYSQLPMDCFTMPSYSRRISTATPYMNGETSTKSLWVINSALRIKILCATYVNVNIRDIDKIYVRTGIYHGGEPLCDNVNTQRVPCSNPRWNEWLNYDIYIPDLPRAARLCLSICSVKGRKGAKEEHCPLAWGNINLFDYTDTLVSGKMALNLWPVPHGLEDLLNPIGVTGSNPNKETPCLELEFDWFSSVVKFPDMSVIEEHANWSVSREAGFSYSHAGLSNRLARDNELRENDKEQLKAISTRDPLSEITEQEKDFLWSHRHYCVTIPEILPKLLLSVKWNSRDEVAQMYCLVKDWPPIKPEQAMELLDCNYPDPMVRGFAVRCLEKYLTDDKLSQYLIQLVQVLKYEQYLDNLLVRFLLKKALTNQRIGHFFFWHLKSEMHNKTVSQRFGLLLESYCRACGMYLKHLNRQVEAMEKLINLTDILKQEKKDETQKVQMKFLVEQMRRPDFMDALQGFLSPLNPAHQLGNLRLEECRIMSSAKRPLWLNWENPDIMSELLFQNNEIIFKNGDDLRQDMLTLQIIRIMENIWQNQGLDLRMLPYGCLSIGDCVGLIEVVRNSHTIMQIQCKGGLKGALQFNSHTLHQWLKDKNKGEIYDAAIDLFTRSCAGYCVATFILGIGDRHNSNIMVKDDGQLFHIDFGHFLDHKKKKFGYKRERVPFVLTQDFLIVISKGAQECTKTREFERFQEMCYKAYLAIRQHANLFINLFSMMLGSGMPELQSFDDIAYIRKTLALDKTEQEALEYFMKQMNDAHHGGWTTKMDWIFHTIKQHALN

| IC50 [1] [µM] | IC50 [2] [µM] | IC50 [3] [µM] | IC50 [4] [µM] | SMILES |
| --- | --- | --- | --- | --- |
| 19.5 | > 30 | > 10.9 | 0.00109 | Cn1c(=O)n([C@H]2CCCOC2)c2c3cc(-c4ccc(OCCCN5CCCCC5)nc4)ccc3ncc21 [Example 31, 3-methyl-1-[(3S)-oxan-3-yl]-8-[6-(3-piperidin-1-ylpropoxy)pyridin-3-yl]imidazo[5,4-c]quinolin-2-one] |
| 6.1 | > 30 | 2.94 | 0.00178 | Cn1c(=O)n([C@@H]2CCCOC2)c2c3cc(-c4ccc(OCCCN5CCCCC5)nc4)ccc3ncc21 [Example 32, 3-methyl-1-[(3R)-oxan-3-yl]-8-[6-(3-piperidin-1-ylpropoxy)pyridin-3-yl]imidazo[5,4-c]quinolin-2-one] |
| 0.505 | > 16.9 | 0.402 | 0.00084 | Cn1c(=O)n([C@@H]2CCCOC2)c2c3cc(-c4ccc(OCCCN5CCC5)nc4)ccc3ncc21 [Example 34, 8-[6-[3-(azetidin-1-yl)propoxy]pyridin-3-yl]-3-mehtyl-1-[(3R)-oxan-3-yl]imidazo[5,4-c]quinolin-2-one] |
| 0.579 | 17.8 | 3 | 0.000589 | CO[C@H]1C[C@@H](n2c(=O)[nH]c3cnc4ccc(-c5ccc(OCCCN6CCCC6)nc5)cc4c32)C1 [Example 35, 1-(cis-3-methoxycyclobutyl)-8-[6-(3-pyrrolidin-1-ylpropoxy)pyridin-3-yl]-3H-imidazo[4,5-c]quinolin-2-one] |
| 10.6 | > 30 | > 25 | 0.00301 | O=c1[nH]c2cnc3ccc(-c4ccc(OCCCN5CCCCC5)nc4)cc3c2n1C1CCOCC1 [Example 36, 1-(oxan-4-yl)-8-[6-(3-piperidin-1-ylpropoxy)pyridin-3-yl]-3H-imidazo[4,5-c]quinolin-2-one] |
| 12.4 | > 29.4 | 20.7 | 0.0012 | Cn1c(=O)n(C2CCOCC2)c2c3cc(-c4ccc(OCCCN5CCCCC5)nc4)ccc3ncc21 [Example 37, 3-methyl-1-(oxan-4-yl)-8-[6-(3-piperidin-1-ylpropoxy)pyridin-3-yl]imidazo[5,4-c]quinolin-2-one] |
| 2.24 | > 24.4 | 0.729 | 0.000292 | CO[C@H]1C[C@@H](n2c(=O)n(C)c3cnc4ccc(-c5ccc(OCCCN6CCC6)nc5)cc4c32)C1 [Example 38, 8-[6-[3-(azetidin-1-yl)propoxy]pyridin-3-yl]-1-(cis-3-methoxycyclobutyl)-3-methylimidazo[4,5-c]quinolin-2-one] |
| 1.27 | 10.7 | 0.828 | 0.00133 | Cn1c(=O)n(C2CCOCC2)c2c3cc(-c4ccc(OCCCN5CCC5)nc4)ccc3ncc21 [Example 39, 8-[6-[3-(azetidin-1-yl)propoxy]pyridin-3-yl]-3-methyl-1-(oxan-4-yl)imidazo[5,4-c]quinolin-2-one] |
| 0.395 | 3.94 | 0.267 | 0.000555 | CNCCCOc1ccc(-c2ccc3ncc4c(c3c2)n([C@H]2CCCOC2)c(=O)n4C)cn1 [Example 41, 3-methyl-8-[6-(3-methylaminopropoxy)pyridin-3-yl]-1-[(3S)-oxan-3-yl]imidazo[5,4-c]quinolin-2-one] |
| 0.214 | 4.37 | 0.321 | 0.000249 | CNCCCOc1ccc(-c2ccc3ncc4c(c3c2)n([C@H]2C[C@@H](OC)C2)c(=O)n4C)cn1 [Example 42, 1-(cis-3-methoxycyclobutyl)-3-methyl-8-[6-(3-methylaminopropoxy)pyridin-3-yl]imidazo[4,5-c]quinolin-2-one] |
| 0.262 | 2.69 | 0.167 | 0.000592 | CNCCCOc1ccc(-c2ccc3ncc4c(c3c2)n([C@@H]2CCCOC2)c(=O)n4C)cn1 [Example 43, 3-methyl-8-[6-[3-(methylamino)propoxy]-3-pyridyl]-1-[(3R)-tetrahydropyran-3-yl]imidazo[4,5-c]quinolin-2-one] |

Second part, the molecule before the results:

| SMILES | IC50 [1] [µM] | IC50 [2] [µM] | IC50 [3] [µM] | IC50 [4] [µM] |
| --- | --- | --- | --- | --- |
| CN(C)CCCOc1ccc(-c2cc3c(cc2F)ncc2c3n(C3COC3)c(=O)n2C)cn1 [Example 9, 8-[6-(3-dimethylaminopropoxy)pyridin-3-yl]-7-fluoro-3-methyl-1-(oxetan-3-yl)imidazo[5,4-c]quinolin-2-one] | > 21.3 | > 30 | > 29.1 | 0.0038 |
| CO[C@H]1C[C@@H](n2c(=O)[nH]c3cnc4ccc(-c5ccc(OCCCN(C)C)nc5)cc4c32)C1 [Example 12, 8-[6-(3-dimethylaminopropoxy)pyridin-3-yl]-1-(cis-3-methoxycyclobutyl)-3H-imidazo[4,5-c]quinolin-2-one] | 0.54 | > 25.2 | 0.769 | 0.00103 |
| CN(C)CCCOc1ccc(-c2ccc3ncc4[nH]c(=O)n(C5CCOCC5)c4c3c2)cn1 [Example 13, 8-[6-(3-dimethylaminopropoxy)pyridin-3-yl]-1-(oxan-4-yl)-3H-imidazo[4,5-c]quinolin-2-one] | 0.248 | > 30 | 1.52 | 0.00322 |
| Cn1c(=O)n([C@H]2C[C@@H](O)C2)c2c3cc(-c4ccc(OCCCN5CCC5)nc4)ccc3ncc21 [Example 14, 8-[6-[3-(azetidin-1-yl)propoxy]pyridin-3-yl]-1-(cis-3-hydroxycyclobutyl)-3-methylimidazo[4,5-c]quinolin-2-one] | 1.04 | > 30 | 0.616 | 0.00105 |
| Cn1c(=O)n([C@H]2C[C@@H](O)C2)c2c3cc(-c4ccc(OCCCN5CCCC5)nc4)ccc3ncc21 [Example 15, 1-(cis-3-hydroxycyclobutyl)-3-methyl-8-[6-(3-pyrrolidin-1-ylpropoxy)pyridin-3-yl]imidazo[4,5-c]quinolin-2-one] | 2.58 | > 30 | 2.39 | 0.000447 |
| CO[C@H]1C[C@@H](n2c(=O)n(C)c3cnc4cc(F)c(-c5ccc(OCCCN(C)C)nc5F)cc4c32)C1 [Example 19, 8-[6-(3-dimethylaminopropoxy)-2-fluoropyridin-3-yl]-7-fluoro-1-(cis-3-methoxycyclobutyl)-3-methylimidazo[4,5-c]quinolin-2-one] | 13.7 | > 30 | > 28 | 0.00262 |
| CN(C)CCCOc1ccc(-c2ccc3ncc4c(c3c2)n([C@H]2CCCOC2)c(=O)n4C)c(F)n1 [Example 20, 8-[6-(3-dimethylaminopropoxy)-2-fluoropyridin-3-yl]-3-methyl-1-[(3S)-oxan-3-yl]imidazo[5,4-c]quinolin-2-one] | 0.529 | > 30 | 1.03 | 0.000365 |
| CN(C)CCCOc1ccc(-c2ccc3ncc4c(c3c2)n(C2CCOCC2)c(=O)n4C)c(F)n1 [Example 21, 8-[6-(3-dimethylaminopropoxy)-2-fluoropyridin-3-yl]-3-methyl-1-(oxan-4-yl)imidazo[5,4-c]quinolin-2-one] | 0.797 | > 30 | 0.68 | 0.000301 |
| CN(C)CCCOc1ccc(-c2ccc3ncc4c(c3c2)n([C@@H]2CCCOC2)c(=O)n4C)c(F)n1 [Example 22, 8-[6-(3-dimethylaminopropoxy)-2-fluoropyridin-3-yl]-3-methyl-1-[(3R)-oxan-3-yl]imidazo[5,4-c]quinolin-2-one] | 1.37 | > 30 | 0.849 | 0.000552 |
| Cn1c(=O)n([C@H]2CCCOC2)c2c3cc(-c4ccc(OCCCN5CCCC5)nc4)c(F)cc3ncc21 [Example 23, 7-fluoro-3-methyl-8-[6-(3-pyrrolidin-1-ylpropoxy)-3-pyridyl]-1-[(3S)-tetrahydropyran-3-yl]imidazo[4,5-c]quinolin-2-one] | 18.2 | > 30 | > 30 | 0.000563 |
| Cn1c(=O)n([C@@H]2CCCOC2)c2c3cc(-c4ccc(OCCCN5CCCC5)nc4)c(F)cc3ncc21 [Example 24, 7-fluoro-3-methyl-8-[6-(3-pyrrolidin-1-ylpropoxy)-3-pyridyl]-1-[(3R)-tetrahydropyran-3-yl]imidazo[4,5-c]quinolin-2-one] | > 9.43 | > 18.8 | 7.29 | 0.00069 |
| CO[C@@H]1CC[C@@H](n2c(=O)n(C)c3cnc4ccc(-c5ccc(OCCCN(C)C)nc5)cc4c32)C1 [Example 25, 8-[6-(3-Dimethylaminopropoxy)pyridin-3-yl]-1-[(1R,3R)-3-methoxycyclopentyl]-3-methylimidazo[4,5-c]quinolin-2-one] | 1.19 | > 20.7 | 1.05 | 0.000315 |
| CO[C@H]1CC[C@H](n2c(=O)n(C)c3cnc4ccc(-c5ccc(OCCCN(C)C)nc5)cc4c32)C1 [Example 26, 8-[6-(3-Dimethylaminopropoxy)pyridin-3-yl]-1-[(1S,3S)-3-methoxycyclopentyl]-3-methylimidazo[4,5-c]quinolin-2-one] | 0.36 | > 21.8 | 0.331 | 0.000152 |
| CNCCCOc1ccc(-c2ccc3ncc4c(c3c2)n(C2CCOCC2)c(=O)n4C)cn1 [Example 40, 3-Methyl-8-[6-(3-methylaminopropoxy)pyridin-3-yl]-1-(oxan-4-yl)imidazo[5,4-c]quinolin-2-one] | 0.191 | 1.33 | 0.184 | 0.000567 |
